Experimental data reported in article PMC6899576, “Structure‐Based Screening of Tetrazolylhydrazide Inhibitors versus KDM4 Histone Demethylases” (Chemmedchem, 2019).

Tests used:
KDM4A = target: T1, KDM4A (Homo sapiens, UniProt O75164); assay: LANCE Ultra antibody-based demethylase assay; format: biochemical
T1 construct: catalytic domain, residues 1-359; pQTEV N-terminal His6 tag removed by TEV protease
T1 sequence (O75164 1-359): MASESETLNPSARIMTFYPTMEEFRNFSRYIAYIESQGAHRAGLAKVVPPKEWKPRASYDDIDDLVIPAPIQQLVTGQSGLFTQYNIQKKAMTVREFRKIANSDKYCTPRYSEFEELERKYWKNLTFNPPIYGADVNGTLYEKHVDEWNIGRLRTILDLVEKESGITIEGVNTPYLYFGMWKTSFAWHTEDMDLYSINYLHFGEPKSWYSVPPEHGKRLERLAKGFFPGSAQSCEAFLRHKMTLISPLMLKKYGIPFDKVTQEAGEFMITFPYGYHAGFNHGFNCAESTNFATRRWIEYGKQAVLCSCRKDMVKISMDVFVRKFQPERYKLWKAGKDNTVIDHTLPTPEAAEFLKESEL
Source text: LANCE Ultra antibody-based demethylase assay on KDM4A

KDM4D = target: T2, KDM4D (Homo sapiens, UniProt Q6B0I6); assay: isothermal titration calorimetry; format: binding
T2 construct: catalytic core, residues 1-342 (11-342 visible in crystals); pQTEV N-terminal His6 tag removed by TEV protease; E. coli
T2 sequence (Q6B0I6 1-342): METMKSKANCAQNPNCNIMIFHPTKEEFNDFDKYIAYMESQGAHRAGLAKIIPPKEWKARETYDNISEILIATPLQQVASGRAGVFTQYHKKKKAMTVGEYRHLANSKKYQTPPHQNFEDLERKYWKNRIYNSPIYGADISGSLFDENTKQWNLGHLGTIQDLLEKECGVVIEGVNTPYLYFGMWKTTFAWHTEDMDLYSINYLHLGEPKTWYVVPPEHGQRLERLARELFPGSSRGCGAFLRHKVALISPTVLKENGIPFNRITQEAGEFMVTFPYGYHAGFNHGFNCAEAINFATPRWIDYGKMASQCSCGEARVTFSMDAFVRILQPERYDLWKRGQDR
Source text: isothermal titration calorimetry on KDM4D

Compound | IC50 (KDM4A) [µM] | Kd (KDM4D) [µM]
NNC(=O)c1ccc(-c2nn[nH]n2)cc1 [compound 6] | 216 ± 33 | 
NNC(=O)c1cccc(-c2nn[nH]n2)c1 [compound 7] | 195 ± 39 | 41 ± 15
NNC(=O)Cc1nnn[nH]1 [compound 1] |  | 2.3 ± 0.9
